Assay results reported in patent publication US8637684B2, “Tautomycetin and tautomycetin analog biosynthesis” (Wisconsin Alumni Research Foundation, priority 2010, dated 2014).

Legend:
SHP2 = target: T1, SHP2 (Homo sapiens, UniProt Q06124); assay: PTP activity assay with pNPP as substrate: SHP2; assay type: biochemical
T1 construct: The expression and purification of the SHP2 catalytic domain (residues 262-528) were described previously; made in house
T1 sequence (Q06124 262-528): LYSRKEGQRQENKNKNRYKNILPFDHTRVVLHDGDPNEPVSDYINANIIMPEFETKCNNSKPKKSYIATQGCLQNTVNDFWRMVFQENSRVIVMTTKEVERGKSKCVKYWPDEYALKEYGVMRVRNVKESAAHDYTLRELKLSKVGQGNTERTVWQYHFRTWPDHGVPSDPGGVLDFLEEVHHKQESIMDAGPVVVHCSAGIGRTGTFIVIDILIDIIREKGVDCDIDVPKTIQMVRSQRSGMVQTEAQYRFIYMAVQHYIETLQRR
Description: (§3) The PTP activity was assayed using pNPP as a substrate at 25° C. in 50 mM 3,3-dimethylglutarate buffer, pH 7.0, containing 1 mM EDTA with an ionic strength of 0.15 M adjusted by NaCl. TTM, TTN and the engineered analogs were analyzed for inhibition of a panel of PTPs at 10 μM compound concentration. For each enzyme screened, test compounds were diluted to 20 μM in 100 μL and combined with 50 μL pNPP at a concentration of 4×Km. The reaction was initiated by the addition of 50 μL of 4× concentrated enzyme and pNPP was allowed to convert to the product p-nitrophenol. The reaction was quenched by the addition of 50 μL of 5N NaOH. Nonenzymatic hydrolysis of pNPP was corrected by measuring the control without the addition of enzyme. Production of p-nitrophenol was monitored by a Spectra MAX385 microplate spectrophotometer (Molecular Devices) at 405 nm using a molar extinction coefficient of 18,000 M^−1 cm^−1. IC50 values were calculated by fitting the absorbance at 405 nm versus inhibitor concentration to the following equation: AI/A0=IC50/(IC50+[I]) where AI is the absorbance at 405 nm of the sample in the presence of inhibitor; Ao is the absorbance at 405 nm in the absence of inhibitor; and [I] is the concentration of the inhibitor.
The effect of the compounds on PTP-catalyzed hydrolysis of p-nitrophenyl phosphate (pNPP) was assessed at pH 7 and 25° C. Members of the PTP superfamily that were included in the screen included the cytosolic PTPs, PTP1B, SHP1, SHP2, Lyp, HePTP, Meg2, and FAP1, the receptor-like PTPs, CD45, LAR, and PTPα, the dual specificity phosphatases VHR, VHX, and Cdc14, and the low molecular weight PTP.
Therefore, all of the IC50 values reported in this study directly reflect the true affinity of the compound for the enzymes tested.

HePTP = target: T2, HePTP (Homo sapiens, UniProt P35236); assay: PTP activity assay with pNPP as substrate: HePTP; assay type: biochemical; details: pNPP as substrate at Km, pH 7.0, 25° C., I = 0.15 M
T2 sequence (P35236 1-360): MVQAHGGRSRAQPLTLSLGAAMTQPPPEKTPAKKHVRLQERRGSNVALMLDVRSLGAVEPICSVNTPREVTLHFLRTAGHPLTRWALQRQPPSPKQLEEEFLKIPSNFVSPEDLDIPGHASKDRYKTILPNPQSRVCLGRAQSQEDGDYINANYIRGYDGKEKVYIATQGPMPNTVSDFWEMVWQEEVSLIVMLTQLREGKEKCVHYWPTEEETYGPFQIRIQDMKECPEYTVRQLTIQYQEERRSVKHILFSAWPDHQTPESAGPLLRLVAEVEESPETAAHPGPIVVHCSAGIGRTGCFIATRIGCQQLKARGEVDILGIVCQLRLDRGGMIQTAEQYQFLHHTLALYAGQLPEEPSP
Description: as §3

[1] = test system: TCR-mediated tyrosine phosphorylation in Jurkat T cells; assay: Anti-CD3 (TCR) induced tyrosine phosphorylation in Jurkat T cells, immunoblot; assay type: cell-based; details: 2-4 μM, 2 hours pretreatment, anti-CD3 stimulation
Description: Jurkat T cells were grown at 37° C. under an atmosphere of 5% CO2 in RPMI medium 1640 supplemented with 10% FBS. Cells were pretreated with different concentrations of TTN, TTN D-1, or TTM for 2 hours and stimulated with […] anti-CD3 antibody (OKT3; eBioscience) for 5 min and 30 min, respectively. Subsequently, cells were spinned down at 2000 rpm in 4° C., and cell pellets were lysed in 50 mM Tris-HCl (pH 7.5), 150 mM NaCl, 10% glycerol, 1% NP-40, 50 mM NaF, 10 mM pyrophosphate, 5 mM idoacetate, 1 mM sodium orthovanadate, and the protease inhibitor mixture. After 30 min lysing on ice, the cell lysates were centrifuged at 13,200 rpm for 15 min. Total cellular proteins were separated by SDS/PAGE and transferred electrophoretically to nitrocellulose membrane, which was immunoblotted by appropriate antibodies followed by incubation with HRP-conjugated secondary antibodies. Blots were developed using Pierce Pico ECL reagent (Thermo) according to the manufacturer's instructions.
TTN induces immunosuppression by suppression of TCR-mediated tyrosine phosphorylation and ERK1/2 activity in T cells (Shim et al., 2002). However, the mechanism of action for TTN's ability to block TCR signaling remains undefined. […]

[2] = test system: SHP2/E76K-expressing hematopoietic progenitors; assay: 3H-thymidine incorporation assay of transduced bone marrow LDMNCs with GM-CSF; assay type: cell-based; details: 2 μM TTN for 24 hrs, GM-CSF 1 ng/mL
Description: (§1) Transduced, EGFP+ cells were subjected to ^3H-thymidine incorporation assays, as previously described (Munugalavadla et al., 2007), or plated at a concentration of 8000 cells/mL in 0.9% methylcellulose-based media containing IMDM, 2 mM glutamine, 1% penicillin/streptomycin, 80 μM β-mercaptoethanol, 30% FBS, and GM-CSF 1 ng/mL or with saturating concentrations of growth factors including IL-3 200 U/mL, erythropoietin 4 U/mL, and stem cell factor (SCF) 100 ng/mL. All growth factors were from Peprotech. Cultures were incubated in a humidified incubator at 37° C. in 5% CO2 for 7 days and were scored for total colonies and for morphology to determine colony forming unit (CFU)-granulocyte-macrophage (GM) or CFU-monocyte (M).
(§2) For biochemical studies, macrophage progenitor cells expressing empty vector (MIEG3), wild-type SHP2, or SHP2/E76K were serum- and growth factor-deprived for 24 hours. Cells were pre-treated with DMSO or 2 μM TTN for 2 hours, and then cultures either remained unstimulated or were stimulated with GM-CSF at 50 ng/mL for 60 minutes. […] To provide further evidence that SHP2 is a molecular target of TTN, the inventors determined the X-ray crystal structure of SHP2 in complex with TTN D-1, as crystallization attempts for the SHP2-TTN complex were unsuccessful. […]

[3] = test system: hematopoietic progenitors (MIEG3, wild-type SHP2, SHP2/E76K); assay: Methylcellulose-based colony assay of transduced bone marrow LDMNCs (CFU-M / CFU-GM); assay type: cell-based; details: 2 μM TTN, GM-CSF 1 ng/mL, 7 days
Description: as §1, §2

PP1 = details: cited from earlier work

tautomycetin [TTN]
preference for SHP2 over all PTPs examined (SHP2; from IC50 values): ≥ 5 fold
IC50 (SHP2; pNPP as substrate at Km, pH 7.0, 25° C., I = 0.15 M): 2900 nM
IC50 (HePTP): > 50000 nM
effect on TCR-mediated tyrosine phosphorylation [1]: efficiently attenuated
effect on GM-CSF-stimulated proliferation of SHP2/E76K-expressing progenitors [2]: effectively reduced the proliferation
development of CFU-M [3]: reduced in all cells types
preferential inhibition of PP1 relative to PP2A (PP1; literature (Mitsuhashi et al., 2001)): about 40 fold
IC50 (PP1; literature values): 1.6 nM
